Test results taken from article PMC8045006 (Heliyon, 2021).
“Also recorded” adds a separate entry of the source. Like-named read-outs stand apart in the source and are kept apart here.

Experiments:
[1] = biological target: T1, Electrical (Torpedo californica) AChE (type VI-S) (Electrophorus electricus, UniProt O42275); test: biochemical; assay type: biochemical
T1 construct: purchased Sigma-Aldrich (Steinheim, Germany) type VI-S
Protocol: (§1) Fluka provided potassium hydroxide, sodium hydrogen carbonate, potassium dihydrogen phosphate, and dipotassium hydrogen phosphate. Sigma-Aldrich (Steinheim, Germany) provided BuChE (E.C.3.1.1.8, from equine serum), Electrical ([…]) AChE (type VI-S), acetylthiocholine iodide, 5,5⸍-dithiobis [2-nitrobenzoic acid]
(§2) In order to set the derivatives’ stock solutions, they were dissolved in the dimethyl sulfoxide (DMSO). Then, we diluted them in the absolute ethanol for obtaining 3 varying concentrations for assay. The experiments were done in triplicate for each concentration. The assay solution included […], […] of phosphate buffer (0.1M, pH = 8), […] of 5 IU/mL butryl cholinesterase solution, and […] of inhibitor. Afterwards, the product was pre-incubated at 25 ᵒC for 10 min. Then, […] of butyrylthiocholine iodide was added as the substrate to the 24 wells for starting the reaction. […] For justifying non-enzymatic reaction, we conducted assays with a blank having all components except ButChE.
Moreover, AChE took the same assay for obtaining the derivatives’ anti-AChE activity.

[2] = biological target: T2, BuChE (E.C.3.1.1.8, from equine serum) (Equus caballus, UniProt P81908); test: biochemical; assay type: biochemical
T2 construct: BuChE (E.C.3.1.1.8, from equine serum); purchased Sigma-Aldrich (Steinheim, Germany); host or cells: equine serum
T2 sequence (P81908 whole entry): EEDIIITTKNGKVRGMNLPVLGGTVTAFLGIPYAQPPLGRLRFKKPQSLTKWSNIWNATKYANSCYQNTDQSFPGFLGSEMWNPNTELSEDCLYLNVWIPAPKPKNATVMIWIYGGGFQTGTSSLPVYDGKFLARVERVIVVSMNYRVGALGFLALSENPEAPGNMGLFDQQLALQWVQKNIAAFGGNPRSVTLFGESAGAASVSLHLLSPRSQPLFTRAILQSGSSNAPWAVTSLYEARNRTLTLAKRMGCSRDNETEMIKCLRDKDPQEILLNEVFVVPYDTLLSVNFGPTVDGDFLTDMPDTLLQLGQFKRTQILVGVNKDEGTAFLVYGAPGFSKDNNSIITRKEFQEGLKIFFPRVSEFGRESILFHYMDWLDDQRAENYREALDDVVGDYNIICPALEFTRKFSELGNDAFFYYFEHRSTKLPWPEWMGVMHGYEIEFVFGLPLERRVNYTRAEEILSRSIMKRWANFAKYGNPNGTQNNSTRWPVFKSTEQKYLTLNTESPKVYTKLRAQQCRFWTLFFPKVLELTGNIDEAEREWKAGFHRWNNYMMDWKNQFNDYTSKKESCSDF
Protocol: as §1
as §2, with “ButChE. […]” for “ButChE.”

[3] = Ellman's method, average ±SD, triplicate, read-out: AChE Inhibition [IC50 (μM)]
[4] = Ellman's method, average ±SD, triplicate, read-out: BuChE Inhibition [IC50 (μM)]
[5] = read-out: AChE Inhibition [IC50 (μM)]
[6] = read-out: BuChE Inhibition [IC50 (μM)]

T1 sequence (O42275 24-633): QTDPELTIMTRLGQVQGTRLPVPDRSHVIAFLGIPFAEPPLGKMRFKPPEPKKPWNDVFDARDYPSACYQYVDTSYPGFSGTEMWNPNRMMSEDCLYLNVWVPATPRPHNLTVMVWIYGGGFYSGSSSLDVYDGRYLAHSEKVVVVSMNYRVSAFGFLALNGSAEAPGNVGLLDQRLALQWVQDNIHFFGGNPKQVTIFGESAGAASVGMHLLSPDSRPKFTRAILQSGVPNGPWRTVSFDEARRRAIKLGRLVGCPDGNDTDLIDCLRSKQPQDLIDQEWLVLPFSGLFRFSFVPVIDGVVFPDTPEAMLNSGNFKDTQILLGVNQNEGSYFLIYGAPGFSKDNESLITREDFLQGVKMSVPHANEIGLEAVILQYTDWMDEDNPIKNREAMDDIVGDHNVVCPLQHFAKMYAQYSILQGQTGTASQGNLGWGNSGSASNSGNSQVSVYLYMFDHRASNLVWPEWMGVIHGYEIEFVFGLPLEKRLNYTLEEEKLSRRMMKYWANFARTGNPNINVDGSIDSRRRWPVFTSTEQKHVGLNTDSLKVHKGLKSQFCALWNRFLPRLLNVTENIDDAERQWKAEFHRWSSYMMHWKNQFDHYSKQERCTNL

Row | Structure (SMILES) | IC50 [1, 3] | IC50 [2, 4] | further results
1 | O=c1c2ccccc2ncn1Cc1ccc[n+](Cc2cccc(Br)c2)c1 [BOP-1, 1-(3-Bromobenzyl)-3-((4-oxoquinazolin-3(4H)-yl)methyl) pyridin-1-ium bromide] | 5.9 ± 0.07 µM | – | IC50 [2]: 6.76 ± 0.04 µM
2 | O=c1c2ccccc2ncn1Cc1ccc[n+](Cc2ccc(Cl)cc2)c1 [BOP-2, 1-(4-Chlorobenzyl)-3-((4-oxoquinazolin-3(4H)-yl)methyl) pyridin-1-ium chloride] | 47.1 ± 0.48 µM | 29 ± 0.43 µM | –
3 | O=c1c2ccccc2ncn1Cc1ccc[n+](Cc2ccc(F)cc2)c1 [BOP-3, 1-(4-Flourobenzyl)-3-((4-oxoquinazolin-3(4H)-yl)methyl) pyridin-1-ium chloride] | – | – | IC50 [1, 5]: > 100 µM; IC50 [2, 6]: 70.43 ± 0.41 µM
4 | N#Cc1ccc(C[n+]2cccc(Cn3cnc4ccccc4c3=O)c2)cc1 [BOP-4, 1-(4-Cyanobenzyl)-3-((4-oxoquinazolin-3(4H)-yl)methyl) pyridin-1-ium bromide] | > 100 µM | > 100 µM | –
5 | O=c1c2ccccc2ncn1Cc1ccc[n+](Cc2ccccc2)c1 [BOP-5, 1-Benzyl-3-((4-oxoquinazolin-3(4H)-yl)methyl) pyridin-1-ium bromide] | 41.2 ± 0.62 µM | 12.63 ± 0.11 µM | –
6 | COc1cc2ncn(Cc3ccc[n+](Cc4cccc(Br)c4)c3)c(=O)c2cc1OC [BOP-6, 1-(3-Bromobenzyl)-3-((6,7-dimethoxy-4-oxoquinazolin-3(4H)-yl)methyl) pyridin-1-ium bromide] | 6.77 ± 0.24 µM | 8.77 ± 0.11 µM | –
7 | COc1cc2ncn(Cc3ccc[n+](Cc4ccc(F)cc4)c3)c(=O)c2cc1OC [BOP-7, 1-(4-Flourobenzyl)-3-((6,7-dimethoxy-4-oxoquinazolin-3(4H)-yl)methyl) pyridin-1-ium chloride] | – | – | IC50 [1, 5]: 21.92 ± 0.2 µM; IC50 [2, 6]: > 100 µM
8 | COc1cc2ncn(Cc3ccc[n+](Cc4ccc(Cl)cc4)c3)c(=O)c2cc1OC.[Cl-] [BOP-8, 1-(4-Chlorobenzyl)-3-((6,7-dimethoxy-4-oxoquinazolin-3(4H)-yl)methyl) pyridin-1-ium chloride] | – | > 100 µM | IC50 [1]: 1.11 ± 0.09 µM; BuChE inhibition (result in words) ([2]; Ellman's method): no inhibitory activity; also recorded: no inhibition
9 | COc1cc2ncn(Cc3ccc[n+](Cc4ccc(C#N)cc4)c3)c(=O)c2cc1OC [BOP-9, 1-(4-Cyanobenzyl)-3-((6,7-dimethoxy-4-oxoquinazolin-3(4H)-yl)methyl) pyridin-1-ium bromide] | > 100 µM | > 100 µM | –
10 | COc1cc2ncn(Cc3ccc[n+](Cc4ccccc4)c3)c(=O)c2cc1OC [BOP-10, 1-Benzyl-3-((6,7-dimethoxy-4-oxoquinazolin-3(4H)-yl)methyl) pyridin-1-ium bromide] | 10.1 ± 0.28 µM | 18.8 ± 0.34 µM | –
